Laboratory results as given in patent publication US20050244413A1, “Compositions and methods for treating cancer using cytotoxic CD44 antibody immunoconjugates and chemotherapeutic agents” (priority 2002, published 2005).
pIC50: −log10 of the molar value.

How the values were obtained:
[1] = system: antigen-positive A431 cells; experiment: In vitro cytotoxicity, MTS/PMS cell proliferation assay, A431; type: cell-based, human; conditions: 4 days exposure
Protocol: (§1) For determination of viable cells the Cell Titer 96® AQueous non-radioactive cell proliferation assay (Promega) was used. Five thousand cells per well were seeded into 96-well plates in 90 μl medium without phenole red. Cells were allowed to settle down for 1 to 3 h and then serial dilutions of the immunoconjugate in 10 μl PBS were added. Cells without immunoconjugate served as negative control. Cells were incubated for 4 days at 37° C. in a humified 5% CO2 atmosphere and then 20 μl MTS/PMS were added according to the manufacturer's recommendation. After additional 1 to 4 h incubation at 37° C. the absorbance at 490 nm was recorded using an ELISA plate reader. For each cell line triplicates were analyzed. The percentage of the surviving cell fraction and the IC50 value were calculated using the GraphPad Prism® (Version 3.0) software.
(§2) The in vitro cytotoxicity of BIWI 1 was evaluated using the antigen-positive cell lines A431 and FaDu, and the antigen-negative cell line […]. Cells were exposed to different concentrations of BIWI 1 for 4 days, then stained with MTS/PMS and assayed on an ELISA plate reader. The surviving fractions of cells were then calculated using the GraphPad Prism® software package.

[2] = system: antigen-negative cell line A549; experiment: In vitro cytotoxicity, MTS/PMS cell proliferation assay, A549; type: cell-based; conditions: A549 cells, highest concentration of BIWI 1 tested (5×1 0-7 M), 4 days
Protocol: as §1, §2

FaDu tumors = experiment: BIWI 1 combination therapy with paclitaxel in the FaDu xenograft model; type: in vivo, mouse
Protocol: In vivo anti-tumor efficacy of BIWI 1 was tested in three nude mouse xenograft models applying antigen-positive human tumors: A431 (ATCC # CRL 1555; epidermoid carcinoma of the vulva), FaDu (ATCC # HTB 43; squamous cell carcinoma of the pharynx), and MDA-MB 453 (ATCC # HTB-131; breast carcinoma). The cells were received from ATCC and cultured in RPMI1640 medium containing 10% fetal calf serum and supplements. 1×10^6 tumors cells were transplanted subcutaneously into the right flank of 6 week old female NMRI-nu/nu mice. Tumor growth was monitored by measuring tumor size. A tumor response was rated as complete response when the tumor completely disappeared at any time after start of treatment. The response was rated as partial response when the tumor volume decreased after treatment but thereafter started regrowing. The tolerability of the treatment was monitored by measuring mouse weight during the observation period.
Mice were randomised into the following treatment groups (treatment/initial mean tumor volume/tumor volume range/number of mice): • Group 1: Control (PBS)/197 mm^3/65-402 mm^3/8 mice • Group 2: Paclitaxel/182 mm^3 /65%-302 mm^3/8 mice • Group 3: BIWI 1/208 mm^3 /65-382 mm^3/8 mice • Group 4: BIWI 1+paclitaxel/159 mm^3 /79-335 mm^3 /7 mice
Treatment consisted either of five i.v. injections of BIWI 1 (7 mg/kg corresponding to 100 μg/kg DM1) at day 1, 3, 5, 8, 10, or of six i.p. injections of paclitaxel (10 mg/kg) at day 2, 4, 6, 9, 11, 13, respectively, or a combination thereof. Control animals were treated with PBS.
One tumor completely dissappeared during treatment and the animal remained tumor free until the end of the observation period.

FaDuDD tumors [3] = experiment: BIWI 1 combination with docetaxel in nude mice xenografted with FaDuDD tumors; type: in vivo, mouse
Protocol: (§3) The antibody solution was injected into the tail vein with an injection volume of 200 μl for a 25 g mouse. In the control groups without BIWI 1 treatment animals were injected i.v. with PBS. […] The solution was injected into the tail vein with an injection volume of 200 μl for a 25 g mouse. […] The solution was injected into the tail vein with an injection volume of 200 μl for a 25 g mouse.
(§4) Tumor sizes and body weights were recorded 2-3 times per week. Tumor sizes were measured with a calliper (length and width) and the volume was calculated according to the following formula: volume (length)×(width)^2×([…]). The tolerability of the treatment was monitored by measuring mouse weight during the whole observation period. […] For calculation of the mean tumor volumes per group, the last values of tumor size for individual animals were carried forward in case that these animals had to be sacrificed due to large tumor burden before the whole group was terminated. In addition to the absolute tumor volume in mm^3, the relative tumor volumes (RTV) were calculated as follows:
(§5) RTV=(tumor volume at day x)/(tumor volume at start of treatment)×100 For the evaluation of treatment efficacy the following parameters were calculated: • T/C (%)=(mean RTV of treated group)/(mean RTV of control group)×100 • T4T (tumor quadrupling time)=time until the mean RTV reaches 400% • GDF4 (growth delay factor)=T4T treated/T4T control.
(§6) In addition, for some experiments, the mean time for tumors to reach 8 times (T8T) their initial sizes were also calculated. The growth delay factor (GDF8) was then calculated accordingly. Percentages of mean relative tumor volumes of treated versus control groups (T/C) were calculated on the days indicated. For statistical evaluation of combination therapies exact Wilcoxon tests were used. Tolerability was assessed by monitoring body weight changes.
To assess the efficacy of BIWI 1 in combination with the taxane docetaxel (Taxotere), non-curative doses of both drugs were tested as single agents or in combination in nude mice xenografted with FADuDD tumors. In pilot experiments a dose of 3 mg/kg docetaxel (q7dx4) was determined to be non-curative in this model. BIWI 1 was used at the non-curative dose of 200 μg/kg DM 1 and at a somewhat higher dose (300 μg/kg DM1).
The effect was somewhat more pronounced in the two BIWI 1 monotherapy treatment groups with T/C 41-30% and GDF4: 2.8-4.4. Complete tumor regression could be observed in 1/8 cases with the higher BIWI 1 dose. […] Treatment was well tolerated in all groups, except for a slight unexplained weight loss (approx. −5%) in the docetaxel monotherapy group.

FaDuDD tumors [4] = experiment: BIWI 1 combination with cisplatin in nude mice xenografted with FaDuDD tumors; type: in vivo, mouse
Protocol: as §3, §4, §5, §6
A different set of experiments was done with cisplatin. In a pilot experiment, a dose of 4 mg/kg cisplatin administered i.v. four times in weekly intervals was determined to be non-curative in this model, and also represents the maximum tolerated dose in the mouse strain used. This dose of cisplatin was combined with BIWI 1 at the non-curative doses of 200 μg/kg DM1 and 300 Ag/kg DM1 already used in the previous experiment. […] In the latter combination group 2/8 complete tumor regressions could be observed. […] Treatment was well tolerated in all groups.

[5] = BIWI 1 7 mg/kg i.v. x5, paclitaxel 10 mg/kg i.p. x6, or both
[6] = BIWI 1 200 μg/kg DM1 i.v. q7dx4
[7] = BIWI 1 300 μg/kg DM1 i.v. q7dx4

BIWI 1
pIC50 [1]: ~7.12 | surviving fraction [2]: 50% | Initial Tumor Doubling Time (FaDu tumors; BIWI 1 7 mg/kg i.v. day 1,3,5,8,10, paclitaxel 10 mg/kg i.p. day 2,4,6,9,11,13, or both): 7 days | Complete Regression (FaDu tumors; [5]): 0/8 | Growth Delay Factor (FaDu tumors; [5]): 0.75 | partial response (FaDu tumors; BIWI 1 monotherapy 7 mg/kg i.v. x5): 3/8 | GDF4 (FaDuDD tumors [3]; [6]): 2.8 | T4T (FaDuDD tumors [3]; [6]): 20.1 days | T/C (d 16) (FaDuDD tumors [3]; [6]): 41% | complete tumor regression (FaDuDD tumors [3]; BIWI 1 300 μg/kg DM1 (higher dose) q7dx4): 1/8 | GDF4 (FaDuDD tumors [3]; [7]): 4.4 | T4T (FaDuDD tumors [3]; [7]): 31.1 days | T/C (d 16) (FaDuDD tumors [3]; [7]): 30% | GDF4 (FaDuDD tumors [4]; [6]): 2.2 | T4T (FaDuDD tumors [4]; [6]): 23.2 days | T/C (d 19) (FaDuDD tumors [4]; [6]): 59% | GDF4 (FaDuDD tumors [4]; [7]): 2.3 | T4T (FaDuDD tumors [4]; [7]): 24.8 days | T/C (d 19) (FaDuDD tumors [4]; [7]): 27%
